Experimental data taken from PMC5769128, “Human UDP-Glucuronosyltransferase 2B4 and 2B7 Are Responsible for Naftopidil Glucuronidation in Vitro” (Frontiers in Pharmacology, 2018).
Like-named read-outs stand apart in the source and are kept apart here.

Columns and labels:
[1] = test system: UGT2B4/UGT2B7 (NAF glucuronidation); assay: Inhibition of the glucuronidation of NAF enantiomers by specific UGT inhibitors in pooled HLM; conditions: human, pooled human liver microsomes, pH 7.5, probe R(+)-NAF 50 μM, S(-)-NAF 20 μM
[2] = human, ref Himmel, 1994, cited from earlier work
[3] = rat, ref Himmel, 1994, cited from earlier work
[4] = test system: animals; design: method as in Himmel, 1994; conditions: 100 mg/day, ref Himmel, 1994; cited from earlier work
[5] = human, after oral treatment; no reference given; cited from earlier work
[6] = test system: human liver microsomes (HLM); assay: Kinetics of NAF enantiomer glucuronidation by human liver microsomes; assay type: in vitro ADME
Method: (§1) All glucuronidation assays were conducted in an incubation volume of 200 μL. Incubations were performed at 37°C in 50 mM Tris–HCl buffer (pH 7.5) with 10 mM magnesium chloride, 1 mg protein/mL of enzyme (microsomes and recombinant human UGTs), alamethicin (100 μg of alamethicin/mg microsomal protein), and NAF enantiomers (2.5–80 μM). The reaction was initiated by the addition of UDPGA (5 mM) and incubated at 37°C in a shaking water bath for 45 min. The reaction was terminated by the addition of 200 μL of ice-cold acetonitrile containing the IS (1 μM) and then centrifuged at 5000 ×g for 10 min at 4°C. The supernatant fraction was injected into the RRLC-MS/MS apparatus. Protein concentration (0.5–2 mg/mL) and incubation time (15–180 min) were optimized in preliminary studies to be within initial linear rate conditions.
(§2) Kinetic parameters were assessed in the HLM, RLM, HKM, RKM, and recombinant human UGTs (UGT2B4, 2B7, and 1A9).

[7] = test system: human kidney microsomes (HKM); assay: Kinetics of NAF enantiomer glucuronidation by human kidney microsomes; assay type: in vitro ADME
Method: as §1, §2

[8] = target: T1, recombinant human UGT2B4 (Homo sapiens, UniProt P06133); assay: Kinetics of NAF enantiomer glucuronidation by recombinant UGT2B4; assay type: in vitro ADME
T1 construct: purchased BD Gentest
T1 sequence (P06133 24-528): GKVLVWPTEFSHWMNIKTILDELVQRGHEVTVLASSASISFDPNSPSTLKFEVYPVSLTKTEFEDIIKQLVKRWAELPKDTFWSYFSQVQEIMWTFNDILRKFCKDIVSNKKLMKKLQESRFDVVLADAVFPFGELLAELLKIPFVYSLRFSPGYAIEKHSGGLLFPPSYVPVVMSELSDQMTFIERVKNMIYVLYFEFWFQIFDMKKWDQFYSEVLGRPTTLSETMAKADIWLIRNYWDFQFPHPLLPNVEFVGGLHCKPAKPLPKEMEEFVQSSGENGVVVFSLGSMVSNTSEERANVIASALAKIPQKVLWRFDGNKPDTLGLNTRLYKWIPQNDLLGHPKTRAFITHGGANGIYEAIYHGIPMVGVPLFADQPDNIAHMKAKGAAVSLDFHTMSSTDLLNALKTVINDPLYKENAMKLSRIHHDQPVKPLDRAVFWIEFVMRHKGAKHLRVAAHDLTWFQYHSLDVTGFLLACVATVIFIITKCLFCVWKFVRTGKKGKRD
Method: as §1, §2

[9] = target: T2, recombinant human UGT1A9 (Homo sapiens, UniProt O60656); assay: Kinetics of NAF enantiomer glucuronidation by recombinant UGT1A9; assay type: in vitro ADME
T2 construct: purchased BD Gentest
T2 sequence (O60656 26-530): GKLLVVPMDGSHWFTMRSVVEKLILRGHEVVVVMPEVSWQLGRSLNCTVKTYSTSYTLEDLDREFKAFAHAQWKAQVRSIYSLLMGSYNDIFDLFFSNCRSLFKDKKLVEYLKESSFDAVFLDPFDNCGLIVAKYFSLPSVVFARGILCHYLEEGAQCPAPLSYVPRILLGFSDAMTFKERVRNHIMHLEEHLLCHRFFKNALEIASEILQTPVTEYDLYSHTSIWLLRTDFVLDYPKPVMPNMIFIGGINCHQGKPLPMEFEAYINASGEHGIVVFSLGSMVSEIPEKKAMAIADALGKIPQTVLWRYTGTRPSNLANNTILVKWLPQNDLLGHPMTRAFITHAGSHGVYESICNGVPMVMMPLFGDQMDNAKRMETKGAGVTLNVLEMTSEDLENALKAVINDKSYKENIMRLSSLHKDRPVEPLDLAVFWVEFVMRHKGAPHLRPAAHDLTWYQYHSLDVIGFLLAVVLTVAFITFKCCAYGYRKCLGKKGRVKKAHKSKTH
Method: as §1, §2

[10] = design: method as in Liu et al., 2017; conditions: rat plasma; ref Liu et al., 2017; cited from earlier work
[11] = target: T3, UGT2B7 (Homo sapiens, UniProt P16662); assay: Kinetics of NAF enantiomer glucuronidation by recombinant UGT2B7; assay type: in vitro ADME; design: purchased BD Gentest
T3 sequence (P16662 24-529): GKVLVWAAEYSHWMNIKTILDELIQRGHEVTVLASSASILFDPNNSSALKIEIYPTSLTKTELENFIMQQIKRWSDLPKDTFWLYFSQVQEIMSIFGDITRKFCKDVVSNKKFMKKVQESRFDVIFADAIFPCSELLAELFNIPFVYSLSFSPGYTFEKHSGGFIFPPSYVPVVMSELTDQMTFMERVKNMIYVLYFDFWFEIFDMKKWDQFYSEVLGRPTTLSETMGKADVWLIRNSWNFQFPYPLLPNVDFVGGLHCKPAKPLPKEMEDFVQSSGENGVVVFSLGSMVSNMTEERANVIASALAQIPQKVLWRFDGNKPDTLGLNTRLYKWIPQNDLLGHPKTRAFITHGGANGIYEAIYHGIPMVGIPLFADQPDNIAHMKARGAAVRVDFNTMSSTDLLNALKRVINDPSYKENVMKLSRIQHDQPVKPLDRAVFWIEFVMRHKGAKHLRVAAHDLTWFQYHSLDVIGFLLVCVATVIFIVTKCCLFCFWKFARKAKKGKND
Method: as §1, §2

[12] = test system: NAF glucuronidation in pooled HLM (UGT2B4/UGT2B7, UGT1A9); assay: Inhibition of the glucuronidation of NAF enantiomers by specific UGT inhibitors in pooled HLM; conditions: inhibitor 5, 50 μM; pooled HLM
[13] = substrate: COc1ccccc1N1CCN(C[C@@H](O)COc2cccc3ccccc23)CC1; assay: cells, lysate or membranes named; conditions: pH 7.5, 37.0 °C
[14] = substrate: COc1ccccc1N1CCN(C[C@H](O)COc2cccc3ccccc23)CC1; assay: cells, lysate or membranes named; conditions: pH 7.5, 37.0 °C
[15] = other: NAF glucuronidation by UGT2B4
[16] = other: NAF glucuronidation by UGT2B7

OC(Cn1cncn1)(Cn1cncn1)c1ccc(F)cc1F [Fluconazole, fluconazole]
inhibition at 45 min, 0.25 mM [1]: ~35% | inhibition at 45 min, 2.5 mM [1]: ~55%

COc1ccccc1N1CCN(CC(O)COc2cccc3ccccc23)CC1 (stereo not shown) [NAF, Naftopidil]
bioavailability ([2]; Liu et al., 2015, 2017): < 20% | bioavailability [2]: 20% | bioavailability ([3]; Liu et al., 2015, 2017): 6.8–14.5% | bioavailability [3]: 9% | adverse findings at high doses [4]: reduced food consumption and body weight gain, apathy, diarrhea, proteinuria, and slightly increased levels of alkaline phosphatase | plasma levels [5]: < 10 µM

COc1ccccc1N1CCN(CC(COc2cccc3ccccc23)OC2OC(C(=O)O)C(O)C(O)C2O)CC1 (stereo not drawn) [R(+)-NAF-G]
Kinetics type [6]: Michaelis–Menten | Vmax [6]: 3330 ± 131 pmol/min/mg | Kinetics type [7]: Michaelis–Menten | Vmax [7]: 2786 ± 138 pmol/min/mg | Kinetics type [8]: Substrate inhibition | Vmax [8]: 264 ± 38 pmol/min/mg | Kinetics type [9]: Substrate inhibition | Vmax [9]: 34 ± 2 pmol/min/mg | level of glucuronide relative to parent enantiomer [10]: six | Kinetics type [11]: Substrate inhibition | Vmax [11]: 1043 ± 152 pmol/min/mg

COc1ccccc1N1CCN(CC(COc2cccc3ccccc23)OC2OC(C(=O)O)C(O)C(O)C2O)CC1 (stereo not drawn) [S(-)-NAF-G]
Kinetics type [6]: Michaelis–Menten | Vmax [6]: 3472 ± 129 pmol/min/mg | Kinetics type [7]: Substrate inhibition | Vmax [7]: 1957 ± 100 pmol/min/mg | Kinetics type [8]: Substrate inhibition | Vmax [8]: 1976 ± 158 pmol/min/mg | Kinetics type [9]: Michaelis–Menten | Vmax [9]: 6.0 ± 2.2 pmol/min/mg | level of glucuronide relative to parent enantiomer [10]: threefold | Kinetics type [11]: Substrate inhibition | Vmax [11]: 1331 ± 298 pmol/min/mg

O=C(O)c1cccnc1Nc1cccc(C(F)(F)F)c1 [niflumic acid]
Inhibition of NAF glucuronidation [12]: could not inhibit NAF glucuronidation

B1: recombinant human UGT2B4 (Homo sapiens) (protein)
chain: GKVLVWPTEFSHWMNIKTILDELVQRGHEVTVLASSASISFDPNSPSTLKFEVYPVSLTKTEFEDIIKQLVKRWAELPKDTFWSYFSQVQEIMWTFNDILRKFCKDIVSNKKLMKKLQESRFDVVLADAVFPFGELLAELLKIPFVYSLRFSPGYAIEKHSGGLLFPPSYVPVVMSELSDQMTFIERVKNMIYVLYFEFWFQIFDMKKWDQFYSEVLGRPTTLSETMAKADIWLIRNYWDFQFPHPLLPNVEFVGGLHCKPAKPLPKEMEEFVQSSGENGVVVFSLGSMVSNTSEERANVIASALAKIPQKVLWRFDGNKPDTLGLNTRLYKWIPQNDLLGHPKTRAFITHGGANGIYEAIYHGIPMVGVPLFADQPDNIAHMKAKGAAVSLDFHTMSSTDLLNALKTVINDPLYKENAMKLSRIHHDQPVKPLDRAVFWIEFVMRHKGAKHLRVAAHDLTWFQYHSLDVTGFLLACVATVIFIITKCLFCVWKFVRTGKKGKRD
Km [13, 15]: 51 µM | Vmax/Km [13, 15]: 5.2 µL/min/mg | Km [14, 15]: 55 µM | Vmax [14, 15]: 1976 pmol/min/mg

B2: recombinant human UGT2B7 (Homo sapiens) (protein)
chain: GKVLVWAAEYSHWMNIKTILDELIQRGHEVTVLASSASILFDPNNSSALKIEIYPTSLTKTELENFIMQQIKRWSDLPKDTFWLYFSQVQEIMSIFGDITRKFCKDVVSNKKFMKKVQESRFDVIFADAIFPCSELLAELFNIPFVYSLSFSPGYTFEKHSGGFIFPPSYVPVVMSELTDQMTFMERVKNMIYVLYFDFWFEIFDMKKWDQFYSEVLGRPTTLSETMGKADVWLIRNSWNFQFPYPLLPNVDFVGGLHCKPAKPLPKEMEDFVQSSGENGVVVFSLGSMVSNMTEERANVIASALAQIPQKVLWRFDGNKPDTLGLNTRLYKWIPQNDLLGHPKTRAFITHGGANGIYEAIYHGIPMVGIPLFADQPDNIAHMKARGAAVRVDFNTMSSTDLLNALKRVINDPSYKENVMKLSRIQHDQPVKPLDRAVFWIEFVMRHKGAKHLRVAAHDLTWFQYHSLDVIGFLLVCVATVIFIVTKCCLFCFWKFARKAKKGKND
Km [13, 16]: 21 µM | Vmax [13, 16]: 1043 pmol/min/mg | Vmax/Km [13, 16]: 50 µL/min/mg | Km [14, 16]: 38 µM | Vmax [14, 16]: 1331 pmol/min/mg
